Counter-ions that a name gives are not always drawn.
What was measured:
[1] = In vitro rat liver S9 stability assay, formation of tafamidis; type: in vitro ADME; details: rat liver S9, 37° C., 1 µM test compound
Method: The test compound was added to liver S9 and incubated at 37° C. in a water bath at a concentration of 1 µM. At each time point (0, 5, 10, 20, 30 and 60 min), stop solution (tolbutamide plus labetalol) was added to precipitate protein and mixed thoroughly. After centrifugation, an aliquot of supernatant was analyzed by LC-MS/MS. The percentage of formation of active agent was calculated at each time point.

[2] = In vitro rat plasma stability assay, formation of tafamidis; type: in vitro ADME; details: 37° C., 2 µM test compound
Method in brief: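 Compound at 2 µM incubated in rat plasma at 37 °C, sampled at 0, 10, 30, 60, 120 min or 0, 60, 120, 180, 240 min. Protein precipitated, supernatant analyzed by LC-MS/MS, and percentage formation of tafamidis calculated per time point.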

[3] = In vivo rat PK: tafamidis in plasma, CSF and brain; design: species or system Male Sprague-Dawley (SD) rats; details: for Tafamidis CSF/Plasma Ratio (iv): iv administration of test compound; for Tafamidis CSF/Plasma Ratio over 24 hrs (po): po administration of test compound
Source text: For a compound provided herein to be an effective TTR stabilizer drug to halt and/or prevent the ocular and cerebral TTR amyloid deposition TTR amyloidosis, it has to be able to penetrate into the brain and CSF (surrogate for eye penetration) and deliver a sufficient amount of TTR stabilizer to stop TTR dissociation. A pharmacokinetic study in rat was used to evaluate the compounds. Male Sprague-Dawley (SD) rats (200-220 g weight) were acclimated for at least 2 to 3 days before being placed on study. All animals had access to certified rodent diet and water at libitum. Appropriate amount of the test compound was accurately weighed and mixed with appropriate volume of vehicle (such as DMSO/sterile water for iv dosing or 0.5% methylcellulose homogenous suspension or solution for oral administration or as a solution in a mixture NMP/PEG400/solutol/water) to administer a dose of 2, 5 or 10 mg/kg. For IV dosing the test compound was administered via tail vein or indwelling cannula. For oral dosing, the test compound was administered by oral gavage. Blood and CSF samples were collected at selected timepoints. Blood collection was performed from saphenous vein or tail vein of each animal into polypropylene tubes at each timepoint. All blood samples were transferred into EDTA-K2 tubes and centrifuged for 15 minutes at 4° C. for plasma collection. Plasma samples were kept at -80° C. until LC/MSMS analysis. CSF was collected from cisterna magna at each timepoint and quick frozen over dry ice and kept at -80° C. until LC/MSMS analysis. Brains were harvested immediately after the terminal bleeding (~ 24 hrs post dosing). The blood of the brain was perfused with normal saline. The brain was quickly picked and placed into centrifuge tube. The weight of brain samples was recorded. 4-Fold homogenization solution (MeOH/15 mM PBS (1:2)) was added into the tube according to the weighed samples. The brain was homogenized using a Polytron (3 strokes or more until homogenous, each 30 seconds) on wet ice. The samples were quick frozen over dry ice and kept at -80° C. until LC/MSMS analysis. Using a LC-MSMS method for the quantitative determination of test compound in biological matrixes, amount of test compound and active agent were measured in plasma and CSF at selected timepoints post-dosing and in brain at 24 hrs post dosing. Plasma concentration versus time data was analyzed by non-compartmental approaches using the Phoenix WinNonlin 6.3 software program. As reference, an oral dose of 2 mg/kg of tafamidis gave a CSF to plasma ratio over 24 hrs around 0.01 and a brain to plasma ratio at 24 hrs around 0.02.

SMILES | Formation of tafamidis at 60 min [1] | Formation of tafamidis at 120 min [2] | Tafamidis CSF/Plasma Ratio (iv) [3] | Tafamidis CSF/Plasma Ratio over 24 hrs (po) [3]
CC(CN(C)C)OC(=O)c1ccc2nc(-c3cc(Cl)cc(Cl)c3)oc2c1 (single isomer, unassigned) [Compound 46, (S*)-1-(dimethylamino)propan-2-yl 2-(3,5-dichlorophenyl)benzo[d]oxazole-6-carboxylate] | A (A is <25%) | B (B is ≥25 to <50%) | C (C is ≥0.02) | A (A is < 0.015)
CS(=O)(=O)N1CCC(OC(=O)c2ccc3nc(-c4cc(Cl)cc(Cl)c4)oc3c2)C1 (stereo not drawn) [Compound 139] | B (B is ≥25 to <50%) | A (A is <25%) |  | A (A is < 0.015)
CN1C[C@H](OC(=O)c2ccc3nc(-c4cc(Cl)cc(Cl)c4)oc3c2)[C@@H](O)C1 [Compound 57, (3S,4S)-4-hydroxy-1-methylpyrrolidin-3-yl 2-(3,5-dichlorophenyl)benzo[d] oxazole-6-carboxylate] | B (B is ≥25 to <50%) | B (B is ≥25 to <50%) | B (B is ≥0.015 to <0.02) | 
CCN(CC)CCCOC(=O)c1ccc2nc(-c3cc(Cl)cc(Cl)c3)oc2c1 [Compound 38, 3-(diethylamino)propyl 2-(3,5-dichlorophenyl)benzo[d] oxazole-6-carboxylate] | A (A is <25%) | B (B is ≥25 to <50%) | B (B is ≥0.015 to <0.02) | B (B is ≥0.015 to <0.02)
CCN1CCCC(OC(=O)c2ccc3nc(-c4cc(Cl)cc(Cl)c4)oc3c2)C1 (stereo not drawn) [Compound 163] | B (B is ≥25 to <50%) | C (C is ≥50 to <75%) |  | A (A is < 0.015)
O=C(OC1CCNCC1)c1ccc2nc(-c3cc(Cl)cc(Cl)c3)oc2c1 [Compound 13, hydrochloride] | A (A is <25%) | A (A is <25%) | B (B is ≥0.015 to <0.02) | B (B is ≥0.015 to <0.02)
CNC(=O)c1ccc2nc(-c3cc(Cl)cc(Cl)c3)oc2c1 [Compound 87] | A (A is <25%) | A (A is <25%) |  | A (A is < 0.015)
CC(Cn1ccnc1)OC(=O)c1ccc2nc(-c3cc(Cl)cc(Cl)c3)oc2c1 (stereo not drawn) [Compound 170] | B (B is ≥25 to <50%) | B (B is ≥25 to <50%) |  | A (A is < 0.015)
O=C(OC1CCN(Cc2ccccc2)C1)c1ccc2nc(-c3cc(Cl)cc(Cl)c3)oc2c1 (stereo not drawn) [Compound 76] | A (A is <25%) | C (C is ≥50 to <75%) |  | B (B is ≥0.015 to <0.02)
O=C(OC1CCN(CC(F)F)C1)c1ccc2nc(-c3cc(Cl)cc(Cl)c3)oc2c1 (stereo not drawn) [Compound 144] | C (C is ≥50 to <75%) | B (B is ≥25 to <50%) |  | B (B is ≥0.015 to <0.02)
CN1CC[C@@H](OC(=O)c2ccc3nc(-c4cc(Cl)cc(Cl)c4)oc3c2)C1 [Compound 59, (R)-1-methylpyrrolidin-3-yl 2-(3,5-dichlorophenyl)benzo[d] oxazole-6-carboxylate] | A (A is <25%) | C (C is ≥50 to <75%) |  | B (B is ≥0.015 to <0.02)
CCN(CC)CCOC(=O)c1ccc2nc(-c3cc(Cl)cc(Cl)c3)oc2c1 [Compound 35, 2-(diethylamino)ethyl 2-(3,5-dichlorophenyl)benzo[d]oxazole-6-carboxylate hydrochloride] | B (B is ≥25 to <50%) | C (C is ≥50 to <75%) | B (B is ≥0.015 to <0.02) | 
CC(C)N1CCC(OC(=O)c2ccc3nc(-c4cc(Cl)cc(Cl)c4)oc3c2)C1 (stereo not drawn) [Compound 75] | A (A is <25%) | B (B is ≥25 to <50%) |  | B (B is ≥0.015 to <0.02)
CN1CCCC(OC(=O)c2ccc3nc(-c4cc(Cl)cc(Cl)c4)oc3c2)C1 (stereo not drawn) [Compound 62] | B (B is ≥25 to <50%) | B (B is ≥25 to <50%) |  | A (A is < 0.015)
O=C(OC1CCn2cncc21)c1ccc2nc(-c3cc(Cl)cc(Cl)c3)oc2c1 (stereo not drawn) [Compound 156, 6,7-dihydro-5H-pyrrolo[1,2-c]imidazol-7-yl 2-(3,5-dichlorophenyl)-benzo[d]oxazole-6-carboxylate] | C (C is ≥50 to <75%) | D (D is ≥75%) |  | B (B is ≥0.015 to <0.02)
O=C(NCCF)c1ccc2nc(-c3cc(Cl)cc(Cl)c3)oc2c1 [Compound 88] | A (A is <25%) | A (A is <25%) |  | A (A is < 0.015)
CC(OC(=O)c1ccc2nc(-c3cc(Cl)cc(Cl)c3)oc2c1)c1ccn(C)n1 (stereo not drawn) [Compound 160] | C (C is ≥50 to <75%) | C (C is ≥50 to <75%) |  | A (A is < 0.015)
O=C(OCCc1ncc[nH]1)c1ccc2nc(-c3cc(Cl)cc(Cl)c3)oc2c1 [Compound 153] | B (B is ≥25 to <50%) | B (B is ≥25 to <50%) |  | B (B is ≥0.015 to <0.02)
O=C(c1ccc2nc(-c3cc(Cl)cc(Cl)c3)oc2c1)N1CCNCC1 [Compound 145] | A (A is <25%) | A (A is <25%) |  | B (B is ≥0.015 to <0.02)
Cn1ccc(COC(=O)c2ccc3nc(-c4cc(Cl)cc(Cl)c4)oc3c2)n1 [Compound 90] | D (D is ≥75%) | A (A is <25%) |  | A (A is < 0.015)
O=C(OCCN1CCCC1)c1ccc2nc(-c3cc(Cl)cc(Cl)c3)oc2c1 [Compound 37, 2-(pyrrolidin-1-yl)ethyl 2-(3,5-dichlorophenyl)benzo[d]oxazole-6-carboxylate] | B (B is ≥25 to <50%) | B (B is ≥25 to <50%) | A (A is <0.015) | 
